Laboratory results taken from US8987195B2 (priority 2012, dated 2015).
Where two headings read alike, the source gives them in different places.

How the values were obtained:
[1] = target: HCV NS3/4A protease genotype 1b (Hepatitis C virus genotype 1b, UniProt P26663); test: HCV NS3/4A protease time-resolved fluorescence (TRF) assay, Ki against genotype 1b; type: biochemical; conditions: IC50 [gt-1b] (nM), NS3/4A genotype 1b, enzyme 0.2 nM
Summary of the method: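 Ki values come from IC50 fits corrected for substrate concentration and KM. The time-resolved fluorescence protease reaction used 25 nM peptide substrate, 2.5 h, room temperature, pH 7.5 HEPES buffer, after 30 min enzyme–inhibitor preincubation.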

HCV genotype 1b replicon = test: HCV replicon assay, genotype 1b replicon EC50; type: cell-based, Hepatitis C virus; conditions: Hepatitis C virus, genotype 1b replicon, read-out: EC50 [gt-1b]
Summary of the method: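 Cells harbouring a stable replicon are grown under G418 selection, then plated with test compound in G418-free medium for 24-48 hours. After washing and lysis, RNA or luciferase signal is measured and expressed as percent of DMSO control to give EC50.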

Sequence of HCV NS3/4A protease genotype 1b (P26663 1027-1657): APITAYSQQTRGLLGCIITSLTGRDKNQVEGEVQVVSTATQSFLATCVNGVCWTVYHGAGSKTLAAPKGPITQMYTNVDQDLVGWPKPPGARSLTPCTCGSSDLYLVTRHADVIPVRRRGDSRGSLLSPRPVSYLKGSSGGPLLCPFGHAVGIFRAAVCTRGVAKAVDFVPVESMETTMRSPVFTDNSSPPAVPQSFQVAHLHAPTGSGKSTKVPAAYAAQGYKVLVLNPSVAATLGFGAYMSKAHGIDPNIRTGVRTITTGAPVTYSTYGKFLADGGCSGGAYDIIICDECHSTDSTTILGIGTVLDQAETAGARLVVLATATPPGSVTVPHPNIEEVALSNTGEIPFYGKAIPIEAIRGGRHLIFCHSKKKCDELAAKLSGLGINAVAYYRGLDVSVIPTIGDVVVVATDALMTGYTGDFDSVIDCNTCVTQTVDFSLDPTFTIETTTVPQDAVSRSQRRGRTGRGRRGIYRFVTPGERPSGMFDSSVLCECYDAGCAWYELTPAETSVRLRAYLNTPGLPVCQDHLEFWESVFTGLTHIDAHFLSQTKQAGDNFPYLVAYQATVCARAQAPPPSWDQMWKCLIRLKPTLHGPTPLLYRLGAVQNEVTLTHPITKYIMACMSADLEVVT
Sequence of HCV NS3/4A protease genotype 1b (P26663 1658-1711): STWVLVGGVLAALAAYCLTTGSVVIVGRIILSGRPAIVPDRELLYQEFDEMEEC

Structure (SMILES)	IC50 [1]	EC50 (HCV genotype 1b replicon)	IC50 ([1]; K+ salt)	EC50 (HCV genotype 1b replicon; K+ salt)	EC50 (HCV genotype 1b replicon; GETYPE1B|GT1B)
Cc1nc2c(F)cccc2c2c1O[C@]1(CC2)C[C@H]2C(=O)NC3(C(=O)NS(=O)(=O)C4(C)CC4)C[C@H]3/C=C\CCCCC[C@H](NC(=O)OC(C)(C)C)C(=O)N2C1 (stereo partly drawn) [Example 45, tert-Butyl (1aR,3aS,3′R,9S,16aS,Z)-7′-fluoro-5′-methyl-1a-(1-methylcyclopropylsulfonylcarbamoyl)-3,8-dioxo-1a,1′,2,2′,3,3a,4,6,8,9,10,11,12,13,14,16a-hexadecahydro-1H-spiro[cyclopropa[e]pyrrolo[1,2-a][1,4]diazacyclopentadecine-5,3′-pyrano[2,3-c]quinoline]-9-ylcarbamate]	0.011 nM	1.1 nM	–	–	–
COc1ccc2nc(C3CCC3)c3c(c2c1)CC[C@]1(C[C@H]2C(=O)NC4(C(=O)NS(=O)(=O)C5(C)CC5)C[C@H]4/C=C\CCCCC[C@H](NC(=O)OC(C)(C)C)C(=O)N2C1)O3 (stereo partly drawn) [Example 46, tert-Butyl (1aR,3aS,3′R,9S,16aS,Z)-5′-cyclobutyl-9′-methoxy-1a-(1-methylcyclopropylsulfonylcarbamoyl)-3,8-dioxo-1a,1′,2,2′,3,3a,4,6,8,9,10,11,12,13,14,16a-hexadecahydro-1H-spiro[cyclopropa[e]pyrrolo[1,2-a][1,4]diazacyclopentadecine-5,3′-pyrano[2,3-c]quinoline]-9-ylcarbamate]	–	–	0.02 nM	0.4 nM	–
Cc1nc2ccccc2c2c1O[C@]1(CC2)C[C@H]2C(=O)N[C@]3(C(=O)NS(=O)(=O)C4(C)CC4)C[C@H]3/C=C\CCCCC[C@H](NC(=O)OC(C)(C)C(F)(F)F)C(=O)N2C1 [Example 47]	0.011 nM	–	–	–	3.72 nM
COc1ccc2nc(CC(F)(F)F)c3c(c2c1)CC[C@]1(C[C@H]2C(=O)N[C@]4(C(=O)NS(=O)(=O)C5(C)CC5)C[C@H]4/C=C\CCCCC[C@H](NC(=O)OCC(C)(C)C)C(=O)N2C1)O3 [Example 48, Neopentyl((2R,6S,13aS,14aR,16aS,Z)-9′-methoxy-14a-(((1-methylcyclopropyl)sulfonyl)carbamoyl)-5,16-dioxo-5′-(2,2,2-trifluoroethyl)-1′,2′,3,5,6,7,8,9,10,11, 13a,14,14a,15,16,16a-hexadecahydro-1H-spiro[cyclopropa[e]pyrrolo[1,2-a][1,4]diazacyclopentadecine-2,3′-pyrano[2,3-c]quinolin]-6-yl)carbamate]	0.006 nM	1.1 nM	–	–	–
COCCCOc1ccc2nc(C(F)(F)F)c3c(c2c1)CC[C@]1(C[C@H]2C(=O)N[C@]4(C(=O)NS(=O)(=O)C5(C)CC5)C[C@H]4/C=C\CCCCC[C@H](NC(=O)OC(C)(C)C)C(=O)N2C1)O3 [Example 51, tert-Butyl ((2R,6S,13aS,14aR,16aS,Z)-9′-(3-methoxypropoxy)-14a-(((1-methylcyclopropyl)sulfonyl)carbamoyl)-5,16-dioxo-5′-(trifluoromethyl)-1′,2′,3,5,6,7,8,9,10,11,13a, 14,14a,15,16,16a-hexadecahydro-1H-spiro[cyclopropa[e]pyrrolo[1,2-a][1,4]diazacyclopentadecine-2,3′-pyrano[2,3-c]quinolin]-6-yl)carbamate]	–	–	0.011 nM	0.246 nM	–
COc1ccc2nc(C(F)(F)F)c3c(c2c1)[C@H](O)C[C@]1(C[C@H]2C(=O)N[C@]4(C(=O)NS(=O)(=O)C5(C)CC5)C[C@H]4/C=C\CCCCC[C@H](NC(=O)OC(C)(C)C)C(=O)N2C1)O3 [Example 54, tert-Butyl [(1′R,2S,6S,12Z,13aS,14aR,16aS)-1′-hydroxy-9′-methoxy-14a-{[(1-methylcyclopropyl)sulfonyl]carbamoyl}-5,16-dioxo-5′-(trifluoromethyl) -1,1′,2′,5,6,7,8,9,10,11,13a,14,14a,15,16,16a-hexadecahydrospiro[cyclopropa[e]pyrrolo[1,2-a][1,4]diazacyclopentadecine-2,3′-pyrano[2,3-c]quinolin]-6-yl]carbamate]	0.012 nM	1.18 nM	–	–	–
